Drawing on ChEMBL document CHEMBL4304794, this text covers Activity and inhibition for three compounds.

The source made the active and inactive calls. The calls are words filed in the database; no cut-off is given here.

Assay [1] addresses Programmed cell death protein 1 (Homo sapiens) (UniProt Q15116). Put plainly: Binding affinity to biotinylated recombinant human C-terminal FC -tagged PD1 (25 to 167 residues) at 0.3 to 300 uM by SPR analysis.
Assay [2] has as its target Programmed cell death 1 ligand 1 (Mus musculus) (UniProt Q9EP73). Put plainly: Inhibition of recombinant mouse N-terminal PDL1 (19 to 238 residues) assessed as recovery of mouse splenocyte proliferation at 100 nM by CFSE-based FACS analysis relative to control.
Assay [3] concerns the target Programmed cell death 1 ligand 1 (Homo sapiens) (UniProt Q9NZQ7). The assay can be described thus: Inhibition of PDL1 in human […] cells assessed as recovery of mouse splenocyte proliferation at 100 nM by CFSE-based FACS analysis relative to control. The class given is cell-based.

Chain of Programmed cell death protein 1 (Homo sapiens) (Q15116 whole entry, the tested form may be a part): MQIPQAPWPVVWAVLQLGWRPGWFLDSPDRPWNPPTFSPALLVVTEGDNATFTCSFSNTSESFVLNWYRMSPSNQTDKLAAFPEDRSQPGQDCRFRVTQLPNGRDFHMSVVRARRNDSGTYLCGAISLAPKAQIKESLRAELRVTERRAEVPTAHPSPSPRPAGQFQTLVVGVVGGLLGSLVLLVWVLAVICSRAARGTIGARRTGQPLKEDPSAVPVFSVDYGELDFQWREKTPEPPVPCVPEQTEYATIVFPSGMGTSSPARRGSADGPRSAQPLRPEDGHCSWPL
Chain of Programmed cell death 1 ligand 1 (Mus musculus) (Q9EP73 whole entry, the tested form may be a part): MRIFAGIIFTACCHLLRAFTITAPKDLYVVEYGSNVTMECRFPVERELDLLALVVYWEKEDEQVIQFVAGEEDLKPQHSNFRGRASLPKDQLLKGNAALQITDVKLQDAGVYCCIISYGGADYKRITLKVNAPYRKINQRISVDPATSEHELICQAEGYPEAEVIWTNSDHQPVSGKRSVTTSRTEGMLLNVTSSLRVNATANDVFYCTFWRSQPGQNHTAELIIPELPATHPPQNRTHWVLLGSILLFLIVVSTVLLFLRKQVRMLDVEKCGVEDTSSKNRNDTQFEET
Chain of Programmed cell death 1 ligand 1 (Homo sapiens) (Q9NZQ7 whole entry): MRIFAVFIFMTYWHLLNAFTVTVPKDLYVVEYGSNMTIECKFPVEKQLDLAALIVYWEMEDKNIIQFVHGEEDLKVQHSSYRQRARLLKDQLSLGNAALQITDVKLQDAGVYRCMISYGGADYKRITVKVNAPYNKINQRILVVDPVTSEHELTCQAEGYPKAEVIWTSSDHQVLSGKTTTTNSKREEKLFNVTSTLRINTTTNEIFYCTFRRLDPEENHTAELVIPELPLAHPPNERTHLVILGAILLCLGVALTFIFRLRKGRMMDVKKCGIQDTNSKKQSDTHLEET

On to `C#CC[C@H](NC(=O)N[C@H](C(=O)O)[C@@H](C)O)c1nc(-c2cnccn2)no1`, for which the result in assay [1] was inactive. Besides, the inhibition in assay [2] was determined as 92%.

With `NC(=O)C[C@H](N)c1nc([C@@H](N)CO)no1`, the outcome in assay [1] was inactive. In addition, the inhibition in assay [2] was found to be 93%.

As for `C[C@@H](O)[C@H](NC(=O)N[C@@H](CC(N)=O)C(=O)NNC(=O)[C@@H](N)CO)C(=O)O`, the outcome in assay [1] was inactive. Also, the inhibition in assay [3] worked out at 68%.
